Measured values taken from the supplement of paper PMC11061612.

Columns and labels:
Assay in all cases: Bliss excess, mean over the matrix (fraction); higher = more synergy
A704 (Kidney Carcinoma) = system: A704 (Kidney Carcinoma)
In short: (§1)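 Bliss excess equals the observed combination effect minus the expected value EA + EB − EA·EB, where EA and EB are the effects of each agent alone. Combination Emax is the second-highest inhibition within the matrix. Inhibition was scaled from CellTiter-Glo 2.0 luminescence, with 0 set by vehicle wells and 1 by blank wells, after 72 hours of two-drug dosing of cells plated in 1536-well plates.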

BT-20 (Breast Carcinoma) = system: BT-20 (Breast Carcinoma)
In short: as §1

[1] = system: DG-75 (Burkitt's Lymphoma)
In short: as §1

EW-3 (Ewing's Sarcoma) = system: EW-3 (Ewing's Sarcoma)
In short: as §1

GI-1 (Glioblastoma) = system: GI-1 (Glioblastoma)
In short: as §1

[2] = system: HC-1 (Other Blood Carcinomas)
In short: as §1

[3] = system: HSC-2 (Oral Cavity Carcinoma)
In short: as §1

IMR-5 (Neuroblastoma) = system: IMR-5 (Neuroblastoma)
In short: as §1

[4] = system: KP-2 (Pancreatic Carcinoma)
In short: as §1

[5] = system: LC4-1 (B-Lymphoblastic Leukemia)
In short: as §1

[6] = system: LOU-NH91 (Squamous Cell Lung Carcinoma)
In short: as §1

[7] = system: NCI-H1573 (Lung Adenocarcinoma)
In short: as §1

[8] = system: NCI-H2405 (Lung Adenocarcinoma)
In short: as §1

[9] = system: NCI-H513 (Other Solid Carcinomas)
In short: as §1

[10] = system: NCI-N87 (Gastric Carcinoma)
In short: as §1

[11] = system: OCUM-1 (Gastric Carcinoma)
In short: as §1

[12] = system: PF-382 (T-Lymphoblastic Leukemia)
In short: as §1

RPMI-7951 (Melanoma) = system: RPMI-7951 (Melanoma)
In short: as §1

[13] = system: SNU-C1 (Colorectal Carcinoma)
In short: as §1

U-87-MG (Glioblastoma) = system: U-87-MG (Glioblastoma)
In short: as §1

SMILES | Bliss excess (A704 (Kidney Carcinoma)) | Bliss excess (BT-20 (Breast Carcinoma)) | Bliss excess [1] | Bliss excess (EW-3 (Ewing's Sarcoma)) | Bliss excess (GI-1 (Glioblastoma)) | Bliss excess [2] | Bliss excess [3] | Bliss excess (IMR-5 (Neuroblastoma)) | Bliss excess [4] | Bliss excess [5] | Bliss excess [6] | Bliss excess [7] | Bliss excess [8] | Bliss excess [9] | Bliss excess [10] | Bliss excess [11] | Bliss excess [12] | Bliss excess (RPMI-7951 (Melanoma)) | Bliss excess [13] | Bliss excess (U-87-MG (Glioblastoma))
Cc1c2c(nn1C)CSCc1cc(n(C)n1)CSc1cc(c3ccccc3c1)OCCCc1c(C(=O)O)n(C)c3c-2c(Cl)ccc13 [AZD5991] + CCN(CCO)CCCOc1ccc2c(Nc3cc(CC(=O)Nc4cccc(F)c4)[nH]n3)ncnc2c1 [AZD2811] (first compound max 1 µM, 7x7, partner max 1 µM) | -0.0462 | 0.108 | 0.0704 | 0.05 | 0.0731 | 0.13 | 0.0322 | -0.0117 | 0.0395 | -0.0464 | 0.0225 | -0.0145 | -0.0164 | -0.0026 | -0.0104 | -0.0031 | 0.0276 | -0.0924 | -0.0256 | 0.0065
COc1nnc2ccc(N3CCC(c4ccc(OCCN5CCN(C)C(=O)[C@H]5C)cc4)CC3)nn12 [AZD5153] + C[C@@H]1COCCN1C2=NC(=NC(=C2)C3(CC3)[S@](=N)(=O)C)C4=C5C=CNC5=NC=C4 [AZD6738] (first compound max 1 µM, 7x7, partner max 10 µM) | -0.0278 | -0.0267 | -0.0203 | -0.0647 | 0.0053 | -0.0468 | -0.0039 | 0.0121 | 0.0565 | -0.0721 | -0.0012 | 0.0531 | 0.0638 | 0.0117 | -0.0135 | 0.0413 | 0.0239 | 0.0423 | -0.0404 | 0.0506
Cc1c2c(nn1C)CSCc1cc(n(C)n1)CSc1cc(c3ccccc3c1)OCCCc1c(C(=O)O)n(C)c3c-2c(Cl)ccc13 [AZD5991] + C[C@@H](Nc1cc(F)cc(F)c1)c1cc(C(=O)N(C)C)cc2c(=O)cc(N3CCOCC3)oc12 [AZD8186] (first compound max 1 µM, 7x7, partner max 3 µM) | -0.0291 | 0.0382 | 0.0008 | -0.0129 | 0.0556 | 0.0381 | 0.0042 | -0.0006 | 0.0193 | -0.057 | -0.0542 | -0.0303 | -0.0114 | 0.0221 | -0.0181 | -0.0302 | 0.005 | 0.0878 | -0.0148 | -0.097
CN(C)CCCOc1ccc(-c2ccc3ncc4c(c3c2)n(C2CCOCC2)c(=O)n4C)cn1 [AZD0156] + O=C(c1cc(Cc2n[nH]c(=O)c3ccccc23)ccc1F)N1CCN(C(=O)C2CC2)CC1 [Olaparib] (first compound max 3 µM, partner max 3 µM) | 0.026 | 0.0209 | 0.0614 | 0.13 | 0.0337 | 0.134 | 0.156 | 0.0884 | -0.0072 | 0.25 | -0.0153 | 0.0002 | -0.0471 | -0.0347 | -0.0568 | -0.0199 | 0.102 | 0.0588 | -0.0049 | 0.0207
C=CCn1c(=O)c2cnc(Nc3ccc(N4CCN(C)CC4)cc3)nc2n1-c1cccc(C(C)(C)O)n1 [AZD1775] + C1CN(CCC1(C(=O)N[C@@H](CCO)C2=CC=C(C=C2)Cl)N)C3=NC=NC4=C3C=CN4 [Capivasertib] (first compound max 3 µM, partner max 3 µM) | -0.0259 | -0.0742 | 0.0215 | -0.0571 | 0.0543 | 0.0514 | 0.0724 | -0.0214 | -0.0475 | -0.0233 | -0.0301 | -0.0318 | -0.0891 | -0.0372 | -0.0067 | -0.0694 | 0.144 | -0.0274 | -0.0869 | 0.0503
CN(CCO)CC[C@H](CSc1ccccc1)Nc1ccc(S(=O)(=O)NC(=O)c2ccc(N3CCC([C@@H](O)c4ccccc4-c4ccc(Cl)cc4)CC3)cc2)cc1S(=O)(=O)C(F)(F)F [AZD4320] + CCN(CCO)CCCOc1ccc2c(Nc3cc(CC(=O)Nc4cccc(F)c4)[nH]n3)ncnc2c1 [AZD2811] (first compound max 1 µM, 7x7, partner max 1 µM) | -0.0659 | 0.0212 | -0.0224 | 0.0814 | 0.144 | 0.173 | 0.166 | -0.0229 | 0.0653 | -0.0049 | 0.0995 | -0.0135 | -0.0333 | -0.0283 | 0.0195 | 0.0648 | 0.0518 | 0.0295 | -0.0263 | -0.019
CC(=O)c1c(C)c2cnc(Nc3ccc(N4CCNCC4)cn3)nc2n(C2CCCC2)c1=O [Palbociclib] + CC1(C)CCC(CN2CCN(c3ccc(C(=O)NS(=O)(=O)c4ccc(NCC5CCOCC5)c([N+](=O)[O-])c4)c(Oc4cnc5[nH]ccc5c4)c3)CC2)=C(c2ccc(Cl)cc2)C1 [Venetoclax] (first compound max 10 µM, 7x7, partner max 1 µM) | -0.0575 | -0.0352 | -0.0084 | 0.0792 | -0.0394 | 0.0552 | -0.0128 | 0.0953 | -0.0425 | -0.0396 | -0.0489 | 0.0244 | -0.0521 | -0.0574 | -0.0275 | -0.0515 | 0.0031 | 0.0005 | -0.093 | -0.054
CC1(C)CCC(CN2CCN(c3ccc(C(=O)NS(=O)(=O)c4ccc(NCC5CCOCC5)c([N+](=O)[O-])c4)c(Oc4cnc5[nH]ccc5c4)c3)CC2)=C(c2ccc(Cl)cc2)C1 [Venetoclax] + CN(C)CCCOc1ccc(-c2ccc3ncc4c(c3c2)n(C2CCOCC2)c(=O)n4C)cn1 [AZD0156] (first compound max 1 µM, 7x7, partner max 1 µM) | -0.0717 | -0.0163 | -0.0123 | 0.032 | 0.0106 | -0.0244 | 0.0307 | -0.0087 | -0.0193 | 0.056 | -0.0307 | -0.0249 | -0.0324 | -0.0142 | -0.0763 | -0.0257 | 0.0446 | 0 | -0.051 | -0.0163
CC1(C)CCC(CN2CCN(c3ccc(C(=O)NS(=O)(=O)c4ccc(NCC5CCOCC5)c([N+](=O)[O-])c4)c(Oc4cnc5[nH]ccc5c4)c3)CC2)=C(c2ccc(Cl)cc2)C1 [Venetoclax] + C[C@@H]1COCCN1C2=NC(=NC(=C2)C3(CC3)[S@](=N)(=O)C)C4=C5C=CNC5=NC=C4 [AZD6738] (first compound max 1 µM, 7x7, partner max 10 µM) | -0.0758 | -0.0511 | -0.0021 | 0.0185 | -0.0025 | 0.0289 | 0.0275 | 0.0104 | -0.0225 | 0.0467 | -0.0023 | -0.0313 | -0.06 | -0.0111 | -0.0232 | -0.0242 | 0.0366 | -0.0474 | -0.124 | -0.0487
COc1nnc2ccc(N3CCC(c4ccc(OCCN5CCN(C)C(=O)[C@H]5C)cc4)CC3)nn12 [AZD5153] + C=CCn1c(=O)c2cnc(Nc3ccc(N4CCN(C)CC4)cc3)nc2n1-c1cccc(C(C)(C)O)n1 [AZD1775] (first compound max 1 µM, partner max 1 µM) | -0.0375 | -0.0856 | -0.0437 | -0.122 | -0.0143 | -0.078 | -0.0167 | -0.0213 | -0.0288 | -0.0018 | 0.0216 | -0.0197 | 0.0195 | -0.0857 | -0.0415 | -0.0217 | -0.0176 | -0.0223 | -0.0563 | -0.119
CC1(C)CCC(CN2CCN(c3ccc(C(=O)NS(=O)(=O)c4ccc(NCC5CCOCC5)c([N+](=O)[O-])c4)c(Oc4cnc5[nH]ccc5c4)c3)CC2)=C(c2ccc(Cl)cc2)C1 [Venetoclax] + Cn1cnc2c(F)c(Nc3ccc(Br)cc3Cl)c(C(=O)NOCCO)cc21 [Selumetinib] (first compound max 1 µM, 7x7, partner max 3 µM) | -0.0299 | -0.0021 | -0.06 | -0.0413 | -0.0095 | 0.0509 | -0.0511 | 0.0009 | -0.0177 | 0.0678 | -0.0291 | -0.0431 | -0.0618 | -0.0415 | -0.065 | -0.0508 | -0.0038 | -0.049 | -0.053 | -0.0889
Cc1c2c(nn1C)CSCc1cc(n(C)n1)CSc1cc(c3ccccc3c1)OCCCc1c(C(=O)O)n(C)c3c-2c(Cl)ccc13 [AZD5991] + C[C@@H]1COCCN1C2=NC(=NC(=C2)C3(CC3)[S@](=N)(=O)C)C4=C5C=CNC5=NC=C4 [AZD6738] (first compound max 1 µM, 7x7, partner max 10 µM) | -0.0522 | 0.0977 | -0.0464 | 0.0207 | -0.0238 | 0.0639 | -0.0459 | 0.0245 | 0.0446 | 0.0101 | 0.0408 | -0.033 | 0.0105 | 0.0278 | -0.0285 | -0.0052 | 0.063 | 0.0095 | -0.0626 | -0.0241
CS(=O)(=O)CCNCc1ccc(-c2ccc3ncnc(Nc4ccc(OCc5cccc(F)c5)c(Cl)c4)c3c2)o1 [Lapatinib] + C[C@@H](Oc1cc(-c2cnn(C3CCNCC3)c2)cnc1N)c1c(Cl)ccc(F)c1Cl [Crizotinib] (first compound max 10 µM, 7x7, partner max 10 µM) | -0.122 | -0.0146 | 0.0033 | -0.0505 | -0.0444 | -0.0124 | 0.0028 | -0.0113 | -0.0353 | -0.0501 | 0.0284 | 0.121 | -0.0396 | -0.0342 | -0.0456 | -0.0252 | -0.0296 | -0.0655 | -0.0359 | -0.0302
COc1nnc2ccc(N3CCC(c4ccc(OCCN5CCN(C)C(=O)[C@H]5C)cc4)CC3)nn12 [AZD5153] + Cn1cnc2c(F)c(Nc3ccc(Br)cc3Cl)c(C(=O)NOCCO)cc21 [Selumetinib] (first compound max 1 µM, 7x7, partner max 10 µM) | -0.0077 | 0.0309 | -0.0177 | -0.0625 | 0.0286 | -0.105 | 0.045 | -0.0047 | -0.0001 | 0.012 | -0.0463 | 0.0491 | -0.0297 | -0.051 | -0.0399 | -0.0347 | 0.0686 | 0.02 | -0.0447 | -0.0591
